Measurements taken from US20040009534A1, “Protein analysis” (DYAX CORPORATION, priority 2002, published 2004).
Read-outs that look alike come from different tables or passages of the source.

How the values were obtained:
human IgG1 = details: read-out: dissociation constants (KD), cited from earlier work
HSA [1] = molecular target: T1, HSA (Homo sapiens, UniProt P02768); experiment: HSA binding test of analytical peptide-Sepharose affinity columns; details: 1 mg HSA injection; for Total Capacity: 0.35 ml column
T1 construct: SwissProt entry: P02768 and/or the following mature
T1 sequence (P02768 25-609): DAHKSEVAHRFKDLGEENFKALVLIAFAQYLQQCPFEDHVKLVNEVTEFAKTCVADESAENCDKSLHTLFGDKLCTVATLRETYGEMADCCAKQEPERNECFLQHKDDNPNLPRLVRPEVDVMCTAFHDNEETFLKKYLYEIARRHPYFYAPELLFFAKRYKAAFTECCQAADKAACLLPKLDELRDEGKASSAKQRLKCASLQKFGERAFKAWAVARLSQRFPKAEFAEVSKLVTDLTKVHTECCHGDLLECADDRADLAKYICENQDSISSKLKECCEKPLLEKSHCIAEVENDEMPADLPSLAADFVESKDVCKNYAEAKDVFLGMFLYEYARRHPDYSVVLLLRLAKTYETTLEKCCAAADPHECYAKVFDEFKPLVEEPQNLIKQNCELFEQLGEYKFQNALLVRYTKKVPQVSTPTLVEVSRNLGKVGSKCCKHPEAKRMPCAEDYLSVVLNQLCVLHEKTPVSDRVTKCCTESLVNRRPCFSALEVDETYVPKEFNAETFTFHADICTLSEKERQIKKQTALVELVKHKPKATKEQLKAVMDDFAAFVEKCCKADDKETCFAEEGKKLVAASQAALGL
Protocol: The immobilization reaction was initiated by the addition of diisopropylethylamine to 2% (vol/vol). After 4 hours of slow mixing on a shaker table at room temperature, the reaction was quenched by the addition of an equal volume of 0.5 M hydroxylamine, pH 8, in water. For those peptides with ivDde-protected internal lysines, the hydroxylamine quench treatment also removed the ivDde-protecting group. To allow for complete protecting group removal, the quenched reaction was allowed to incubate overnight at room temperature. Once quenched and deprotected, the immobilized peptide-Sepharose resin was washed at least 3 times with water to remove solvent and unbound peptide. Non-specifically bound peptide was eluted off the resin by washing the resin at least three times in 30 mM phosphoric acid, pH 2. Since the NHS-Sepharose resin surface becomes negatively charged after hydrolysis, an acidic wash neutralizes the surface and removes any peptides bound non-covalently to the surface via electrostatic interactions. After washing, the resin was resuspended in water as a 50% v/v mixture. A 50 μl aliquot was used to determine the ligand density on the resin by quantitative amino acid analysis. Finally, the resin slurry was packed into 0.35 ml OMNIFIT™ glass columns (3 mm×50 mm) for analytical testing.
Each peptide was immobilized at high density on NHS-Sepharose resin using the procedure outlined above. The peptides were immobilized via a C-terminal lysine. […] Each column was tested for HSA binding (1 mg injection) in binding buffer—3 mM sodium phosphate, 0.1% Tween-20 detergent, pH 6.2.
One milliliter of albumin solution was passed through each column (0.35 ml) previously equilibrated in equilibration buffer. The columns were washed with the same equilibration buffer and then eluted with 100 mM Tris, pH 9.1 (flow rate, 0.5 ml/min for all steps). The column chromatography was carried out using a BIO-RAD BIOLOGIC™ monitoring system (Hercules, Calif.) throughout this testing with absorbance monitoring at 280 nm.

Goat albumin = experiment: Dissociation constants (KD) against a panel of albumins; type: binding
From the text: (§1) The binding properties of a ligand that binds a serum protein can be readily assessed using various assay formats. For example, the binding property of a ligand can be measured in solution by fluorescence anisotropy, which provides a convenient and accurate method of determining a dissociation constant (KD) of a binding moiety for a serum albumin from one or more different species. In one such procedure, a binding moiety described herein is labeled with fluorescein. The fluorescein-labeled binding moiety may then be mixed in wells of a multi-well assay plate with various concentrations of a particular species of serum albumin. Fluorescence anisotropy measurements are then carried out using a fluorescence polarization plate reader. The binding interaction between a serum protein and a non-covalently associated compound can be similarly characterized. Other solution measures for studying binding properties include fluorescence resonance energy transfer (FRET) and NMR.

chicken ovalbumin = molecular target: T2, chicken ovalbumin (Gallus gallus, UniProt P01012); experiment: Dissociation constants (KD) against a panel of albumins, negative control; type: binding; details: both sets of buffers
T2 sequence (P01012 1-386): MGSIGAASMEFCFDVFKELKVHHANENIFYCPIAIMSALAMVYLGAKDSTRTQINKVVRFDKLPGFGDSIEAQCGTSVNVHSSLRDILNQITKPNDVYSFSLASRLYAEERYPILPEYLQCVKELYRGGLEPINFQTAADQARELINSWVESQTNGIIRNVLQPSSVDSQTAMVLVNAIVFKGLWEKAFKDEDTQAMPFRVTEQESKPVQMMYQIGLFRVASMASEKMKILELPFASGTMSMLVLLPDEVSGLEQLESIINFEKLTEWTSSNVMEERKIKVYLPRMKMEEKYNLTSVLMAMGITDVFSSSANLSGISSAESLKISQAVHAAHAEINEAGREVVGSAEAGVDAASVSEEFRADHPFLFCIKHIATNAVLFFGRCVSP
From the text: as §1
Chicken ovalbumin is not homologous to HSA as determined by sequence alignment analysis.

Fc protein = details: from buffer solution and tobacco extract; cited from earlier work
HSA [2] = molecular target: T1, HSA; experiment: Dissociation constants (KD) against a panel of albumins; type: binding; details: phosphate, pH 6.2, O M NaCl
From the text: as §1

[3] = molecular target: murine serum albumin (MSA) (Mus musculus, UniProt P07724); experiment: as above; type: binding
Sequence of murine serum albumin (MSA) (P07724 25-608): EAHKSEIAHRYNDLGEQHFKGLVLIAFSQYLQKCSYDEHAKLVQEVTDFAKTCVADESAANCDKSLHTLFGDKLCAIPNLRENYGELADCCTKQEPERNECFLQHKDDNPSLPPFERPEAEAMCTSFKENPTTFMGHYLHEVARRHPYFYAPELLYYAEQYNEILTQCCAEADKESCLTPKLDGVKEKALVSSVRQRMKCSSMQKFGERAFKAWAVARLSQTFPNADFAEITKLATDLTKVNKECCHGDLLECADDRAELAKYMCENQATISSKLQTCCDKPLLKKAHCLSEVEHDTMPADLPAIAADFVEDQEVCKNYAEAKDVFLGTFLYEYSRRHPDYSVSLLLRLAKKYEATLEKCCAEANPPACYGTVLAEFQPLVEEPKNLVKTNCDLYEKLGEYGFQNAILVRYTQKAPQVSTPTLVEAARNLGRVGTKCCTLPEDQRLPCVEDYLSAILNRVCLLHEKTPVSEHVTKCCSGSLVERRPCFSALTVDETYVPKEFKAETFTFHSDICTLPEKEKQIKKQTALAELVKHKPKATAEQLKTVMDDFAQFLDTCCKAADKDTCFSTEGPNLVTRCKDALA
From the text: as §1

human IgG3 = details: human IgG3, pH 5.7; read-out: dissociation constants (KD); cited from earlier work
Sequence of human IgG3 (P01860 1-377 isoform P01860-1): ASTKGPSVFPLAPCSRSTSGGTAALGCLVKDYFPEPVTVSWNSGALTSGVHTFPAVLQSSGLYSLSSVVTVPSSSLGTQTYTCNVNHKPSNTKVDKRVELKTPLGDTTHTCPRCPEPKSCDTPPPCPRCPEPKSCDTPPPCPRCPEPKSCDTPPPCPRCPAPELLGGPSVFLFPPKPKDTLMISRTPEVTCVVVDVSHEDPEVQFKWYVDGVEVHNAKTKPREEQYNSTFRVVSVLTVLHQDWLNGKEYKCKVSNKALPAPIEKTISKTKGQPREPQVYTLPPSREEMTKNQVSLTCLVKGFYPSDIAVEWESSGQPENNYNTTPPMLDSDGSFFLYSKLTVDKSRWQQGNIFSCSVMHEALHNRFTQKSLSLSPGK

[4] = fraction: Elution (100 mM Tris, pH 9.1)

Sequence of human IgG1 (P01857 1-330 isoform P01857-1): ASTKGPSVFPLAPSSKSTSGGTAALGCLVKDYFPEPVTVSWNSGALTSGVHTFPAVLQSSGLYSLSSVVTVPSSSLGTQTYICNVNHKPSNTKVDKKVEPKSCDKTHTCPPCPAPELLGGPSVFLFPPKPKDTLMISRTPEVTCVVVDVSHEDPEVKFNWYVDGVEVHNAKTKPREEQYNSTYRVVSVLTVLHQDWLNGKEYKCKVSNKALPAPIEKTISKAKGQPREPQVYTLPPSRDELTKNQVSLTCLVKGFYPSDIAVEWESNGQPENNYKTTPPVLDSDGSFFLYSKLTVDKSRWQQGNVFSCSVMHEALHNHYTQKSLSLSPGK

Total Capacity (HSA [1])	μg HSA (HSA [1]; [4])	μg HSA (HSA [1]; fraction: Flow through, pH 6.2)	Kd (Goat albumin; PBS, pH 7.4, […] NaCl)	Kd (Goat albumin; phosphate, pH 6.2, O M NaCl)	Compound	Kd (human IgG1; IgG1, pH 7.4)	Kd (human IgG1; human IgG1, pH 5.7)	binding to chicken ovalbumin (chicken ovalbumin)	further results
–	–	–	–	–	GDDHMCVYTTWGELIWCDNHEPGPEGGGK [DX249]	< 0.5 µM	< 0.1 µM	–	–
–	–	–	–	–	AGYYWCNYWGLCPDQGTPGPEGGGK [DX254]	< 2 µM	< 0.1 µM	–	Kd (human IgG1; human IgG1, pH 9.3): < 1 µM
>2.7 mg/mL	947 µg	0 µg	23 µM	1.6 µM	CC[C@H](C)[C@@H]1NC(=O)[C@H](CCCNC(=N)N)NC(=O)[C@H](CC(=O)O)NC(=O)[C@@H](NC(=O)[C@H](Cc2ccccc2)NC(=O)[C@H](Cc2c[nH]c3ccccc23)NC(=O)[C@H](Cc2ccccc2)NC(=O)[C@H](CC(=O)O)NC(=O)CNC(=O)[C@@H](NC(=O)CNC(=O)[C@H](CCC(=O)O)NC(=O)[C@H](C)NC(C)=O)[C@@H](C)O)CSSC[C@@H](C(=O)N[C@@H](CCC(=O)O)C(=O)N[C@@H](Cc2ccccc2)C(=O)N[C@@H](CC(C)C)C(=O)N[C@@H](CC(=O)O)C(=O)N2CCC[C@H]2C(=O)N[C@@H](CCC(=O)O)C(=O)NCC(=O)NCC(=O)NCC(=O)N[C@@H](CCCCN)C(N)=O)NC(=O)[C@H](CC(C)C)NC(=O)[C@H](Cc2c[nH]cn2)NC(=O)[C@H](CCC(N)=O)NC(=O)[C@@H]2CCCN2C(=O)[C@H](Cc2ccc(O)cc2)NC(=O)[C@H](Cc2c[nH]c3ccccc23)NC(=O)[C@H](C)NC1=O [DX-236]	–	–	neither peptide showed any significant binding	–
–	–	–	–	–	GDRRACSRDWSGALVWCAGHEPGPEGGGK [DX253]	–	–	–	capture efficiency (quantitative binding of Fc protein) (Fc protein): > 90 % of total load
>1.1 mg/mL	370 µg	554 µg	83 µM	95 µM	CC[C@H](C)[C@@H]1NC(=O)[C@H](Cc2c[nH]c3ccccc23)NC(=O)[C@H](CO)NC(=O)[C@H](Cc2ccccc2)NC(=O)[C@H](CCCCN)NC(=O)[C@@H](NC(=O)[C@H](CCSC)NC(=O)[C@H](CC(N)=O)NC(=O)[C@H](CCCNC(=N)N)NC(=O)[C@H](CC(=O)O)NC(=O)CNC(=O)[C@@H](NC(=O)CNC(=O)[C@H](CCC(=O)O)NC(=O)[C@H](C)NC(C)=O)[C@@H](C)O)CSSC[C@@H](C(=O)N[C@@H](C)C(=O)N[C@@H](CCCNC(=N)N)C(=O)N[C@@H](C)C(=O)N[C@@H](CC(=O)O)C(=O)N2CCC[C@H]2C(=O)N[C@@H](CCC(=O)O)C(=O)NCCCCCC(=O)N[C@@H](CCCCN)C(N)=O)NC(=O)[C@H](Cc2ccccc2)NC(=O)[C@H](C)NC(=O)[C@@H]2CCCN2C(=O)[C@H](CO)NC(=O)[C@H](CCCNC(=N)N)NC1=O [DX-321]	–	–	neither peptide showed any significant binding	KD (HSA [2]): submicromolar; Kd ([3]; PBS, pH 7.4, 0.14 M NaCl): > 200 µM; Kd ([3]; phosphate, pH 6.2, O M NaCl): > 200 µM
–	–	–	–	–	GDDDHCYWFREWFNSECPHGEPGPEGGGK [DX252]	–	–	–	Kd (human IgG3): < 0.1 µM
